Experimental data reported in US10130633B2, “Compounds” (BAYER PHARMA AKTIENGESELLSCHAFT, priority 2013, dated 2018).
Several values for one entry are separate records, joined by “and”; a condition that tells them apart may be missing. Equal values may be shown once. Read-outs that look alike come from different tables or passages of the source.

Key:
[1] = test system: constitutive active colorectal cancer cell (CRC) Wnt pathway; assay: HCT116 TOPFlash cellular reporter assay (Super TopFlash luciferase), constitutive active Wnt pathway; type: cell-based; conditions: for IC50: HCT116 TOP reporter cells, 36 hours incubation, luciferase expression
Method: In order to discover and characterize small molecules which inhibit the constitutive active colorectal cancer cell (CRC) Wnt pathway, a cellular reporter assay was employed. […] Stable transfectants were generated by cotransfection with pcDNA3 and selection of stable transfected cells with 1 mg/ml G418.

[2] = Solubility in buffer / aqueous media; type: physicochemical; conditions: pH 6.5, aqueous buffer; buffer at pH6.5
Excerpt: Some of the compounds of general formula (I) show low solubility in aqueous media and organic solvents. This can affect the possibility to assess the activity of such compounds with the described assays. […] Therefore, the high IC50 value of the compound might be a result of the low solubility.

[3] = test system: HCT116 FOP control reporter cell line; assay: HCT116 FOPFlash control reporter assay (FOP control vector, non-functional TCF elements); type: cell-based; conditions: HCT116 FOP control reporter cells, 36 hours incubation, luciferase expression
Excerpt: In a parallel approach, HCT116 cells were cotransfected with the FOP control vector and pcDNA3. The FOP vector is identical to the TOP construct, but it contains instead of functional TCF elements a randomized, non-functional sequence. For this transfection a stable transfected cell line was generated as well.

[4] = test system: wildtype Wnt pathway; assay: HEK293 TOP reporter assay, wildtype Wnt pathway stimulated with Wnt-3a; type: cell-based, human; conditions: read-out: HEK TOP OncoFlash IC50
Method: Measurement of luciferase expression was done as described for the constitutive active Wnt assay.
In order to discover and characterize small molecules which inhibit the wildtype Wnt pathway, a cellular reporter assay was employed. […] Stable transfectants were generated by selection with 300 μg/ml Hygromycin.

[5] = test system: HEK293 FOP control reporter cell line; assay: HEK293 FOP control reporter assay; type: cell-based, human; conditions: read-out: HEK FOP IC50

Compound | IC50 value in the HCT116 TOPFlash assay (in words) ([1]; might be a result of the low solubility) | solubility [2] | IC50 ([1]; Homo sapiens, HCT-116, 36 h) [nM] | IC50 ([3]; Homo sapiens, HCT-116, 36 h) [nM] | IC50 ([4]; Homo sapiens, HEK293, 16 h) [nM] | IC50 ([5]; Homo sapiens, HEK293, 16 h) [nM] | IC50 [1] [nM] | IC50 [3] [nM] | IC50 ([4]; HEK293 TOP cells, EC50 concentration of recombinant Wnt-3a, 16 hours) [nM] | IC50 ([5]; HEK293 FOP control cells, EC50 concentration of recombinant Wnt-3a, 16 hours) [nM]
COc1ccc(C(=O)Nc2nnc(-c3ccccc3)s2)cc1NC(=O)CN1CCOCC1 [4-methoxy-3-[(morpholin-4-ylacetyl)amino]-N-(5-phenyl-1,3,4-thiadiazol-2-yl)benzamide] | higher than expected | < 0.1 µg/mL and < 0.22 µM | – | – | – | – | – | – | – | –
COC(=O)c1ccc(C(=O)Nc2nnc(-c3ccccc3)s2)cc1NC(=O)CN1CCN(C)CC1 [Example 105, methyl 2-{[(4-methylpiperazin-1-yl)acetyl]amino}-4-[(5-phenyl-1,3,4-thiadiazol-2-yl)carbamoyl]benzoate] | – | – | 64 | ≥ 50000 | 300 | ≥ 50000 | – | – | – | –
Nc1ccc(-c2ccc(NC(=O)c3ccc(OC(F)(F)F)c(NC(=O)CN4CCOCC4)c3)cn2)cc1 [Example 126, N-[6-(4-aminophenyl)pyridin-3-yl]-3-[(morpholin-4-ylacetyl)amino]-4-(trifluoromethoxy)benzamide] | – | – | 52.5 | ≥ 50000 | 36 | ≥ 50000 | – | – | – | –
CN1CCN(CC(=O)Nc2cc(C(=O)Nc3ccc(-c4ccccc4)cn3)ccc2OC(F)(F)F)CC1 [Example 132, 3-{[(4-methylpiperazin-1-yl)acetyl]amino}-N-(5-phenylpyridin-2-yl)-4-(trifluoromethoxy)benzamide formiate] | – | – | – | – | – | – | 35.5 | 20000 | 70 | 11000
O=C(CN1CCOCC1)Nc1cc(C(=O)Nc2ccc(-c3ccccc3F)nc2)ccc1OC1CC1 [Example 133, 4-(cyclopropyloxy)-N-[6-(2-fluorophenyl)pyridin-3-yl]-3-[(morpholin-4-ylacetyl)amino]benzamide] | – | – | 54.6 | ≥ 50000 | 130 | ≥ 50000 | – | – | – | –
O=C(Nc1ccc(-c2ccccc2F)nc1)c1ccc(OC2CC2)c(NC(=O)C2(N3CCOCC3)CC2)c1 [Example 134, 4-(cyclopropyloxy)-N-[6-(2-fluorophenyl)pyridin-3-yl]-3-({[1-(morpholin-4-yl)cyclopropyl]carbonyl}amino)benzamide] | – | – | 16.6 | 5200 | 31 | 12000 | – | – | – | –
O=C(Nc1nnc(-c2ccccc2)s1)c1ccc(OC2CC2)c(NC(=O)C2(N3CCOCC3)CC2)c1 [Example 159, 4-(cyclopropyloxy)-3-({[1-(morpholin-4-yl)cyclopropyl]carbonyl}amino)-N-(5-phenyl-1,3,4-thiadiazol-2-yl)benzamide] | – | – | 41.4 | ≥ 50000 | 54 | ≥ 50000 | – | – | – | –
